Earlier results on one compound are cited in patent US20080255200A1, “SUBSTITUTED BENZIMIDAZOLES” (AUSPEX PHARMACEUTICALS, INC., priority 2007, published 2008).

Each structure is given as a SMILES string.

For this series, the target named is gastric H^+, K^+-ATPase (Homo sapiens, UniProt P20648). The following applies: intragastric pH over 4, orally administered.
gastric H^+, K^+-ATPase, sequence (P20648 whole entry): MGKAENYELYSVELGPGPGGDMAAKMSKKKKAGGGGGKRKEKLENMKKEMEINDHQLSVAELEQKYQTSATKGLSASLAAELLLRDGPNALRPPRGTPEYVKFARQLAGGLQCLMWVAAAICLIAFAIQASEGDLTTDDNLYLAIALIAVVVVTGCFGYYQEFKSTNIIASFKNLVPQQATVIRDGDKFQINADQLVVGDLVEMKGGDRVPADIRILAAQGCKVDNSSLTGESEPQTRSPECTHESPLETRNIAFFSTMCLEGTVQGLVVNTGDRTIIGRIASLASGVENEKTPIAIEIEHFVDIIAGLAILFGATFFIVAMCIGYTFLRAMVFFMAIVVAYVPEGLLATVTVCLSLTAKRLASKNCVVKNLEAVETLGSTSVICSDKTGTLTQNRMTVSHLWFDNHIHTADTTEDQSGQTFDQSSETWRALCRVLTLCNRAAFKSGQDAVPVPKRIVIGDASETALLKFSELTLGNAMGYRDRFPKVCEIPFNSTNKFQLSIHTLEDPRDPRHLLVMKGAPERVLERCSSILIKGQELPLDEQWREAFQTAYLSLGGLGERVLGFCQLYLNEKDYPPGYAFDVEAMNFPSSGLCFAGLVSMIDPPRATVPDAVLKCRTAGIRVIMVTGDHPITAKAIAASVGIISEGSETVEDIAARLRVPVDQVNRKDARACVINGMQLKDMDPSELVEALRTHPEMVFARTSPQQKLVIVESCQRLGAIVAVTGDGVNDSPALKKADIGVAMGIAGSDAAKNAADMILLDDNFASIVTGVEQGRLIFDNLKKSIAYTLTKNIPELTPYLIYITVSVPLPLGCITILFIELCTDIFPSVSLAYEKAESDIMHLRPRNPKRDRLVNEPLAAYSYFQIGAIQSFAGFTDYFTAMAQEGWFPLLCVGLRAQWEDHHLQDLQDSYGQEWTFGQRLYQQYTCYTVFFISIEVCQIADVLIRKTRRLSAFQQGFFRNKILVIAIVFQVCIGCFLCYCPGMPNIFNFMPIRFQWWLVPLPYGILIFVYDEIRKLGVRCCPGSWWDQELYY
gastric H^+, K^+-ATPase, sequence (P51164 whole entry partner): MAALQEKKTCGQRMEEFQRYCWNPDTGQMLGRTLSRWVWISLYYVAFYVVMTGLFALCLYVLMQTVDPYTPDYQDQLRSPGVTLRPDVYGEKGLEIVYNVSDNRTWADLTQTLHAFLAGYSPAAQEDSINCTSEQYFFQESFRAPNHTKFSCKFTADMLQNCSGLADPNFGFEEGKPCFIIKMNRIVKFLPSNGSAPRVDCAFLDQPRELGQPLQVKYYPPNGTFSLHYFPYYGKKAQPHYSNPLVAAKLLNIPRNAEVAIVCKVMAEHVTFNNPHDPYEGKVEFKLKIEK

Take `COc1ccnc(C[S+]([O-])c2nc3cc(-n4cccc4)ccc3[nH]2)c1C` (stereo not shown) [Ilaprazole, 2-(4-methoxy-3-methyl-pyridin-2-ylmethanesulfinyl)-5-pyrrol-1-yl-1H-benzoimidazole]: the “average time intragastric pH is increased to over 4” value is reported as 20.5 hours.
